Reference: US8937189B2, “Tri-substituted 2-benzhydryl-5-benzylamino-tetrahydro-pyran-4-ol and 6-benzhydryl-4-benzylamino-tetrahydro-pyran-3-ol analogues, and novel 3,6-disubstituted pyran derivatives” (Wayne State University, priority 2004, dated 2015)
Structures can show the parent of a compound that is named as a salt.

Experiments:
rat NET = assay: Inhibition of [3H]nisoxetine binding to NET; details: Table 3; selectivity ratio of IC50 values
Experimental: (§1) Briefly, rat striatum was the source for DAT, and cerebral cortex for SERT and NET. […] Test compounds were dissolved in dimethyl sulfoxide (DMSO) and diluted out in 10% (v/v) DMSO. […] At lease five triplicate concentrations of each test compound were studied, spaced evenly around the IC50 value. For DAT uptake assays, uptake of 50 nM [^3H]DA into rat striatal synaptosomes was measured exactly as described by us previously. Briefly, rat striatal P2 membrane fractions were incubated with test compounds for 8 min followed by the additional presence of [^3H]DA for 4 min at 25?. […] Construction of inhibition curves and dissolvement of test compounds were as described above.

rat DAT = target: T1, rat DAT (Rattus norvegicus, UniProt P23977); assay: Inhibition of [3H]WIN 35,428 binding to DAT
T1 construct: rat striatum was the source for DAT, and cerebral cortex for SERT and NET; from tissue; host or cells: rat striatum (P2 membrane fractions / synaptosomes for uptake)
Experimental: as §1

DAT = target: T2, DAT (Rattus norvegicus, UniProt P23977); assay: Inhibition of [3H]DA uptake by DAT into rat striatal synaptosomes; format: biochemical; details: DAT binding vs DA uptake
T2 construct: rat striatum was the source for DAT, and cerebral cortex for SERT and NET; from tissue; host or cells: rat striatum (P2 membrane fractions / synaptosomes for uptake)
Experimental: as §1

NET = target: T3, NET (Rattus norvegicus, UniProt Q63380); assay: Inhibition of [3H]NE uptake by NET; format: biochemical; details: text summary of Table 4
T3 construct: from tissue

SERT = target: T4, SERT (Rattus norvegicus, UniProt P31652); assay: Inhibition of [3H]5-HT uptake by SERT; format: biochemical; details: text summary of Table 4
T4 construct: from tissue

rat SERT = target: T5, rat SERT (Rattus norvegicus, UniProt P31652); assay: Inhibition of [3H]citalopram binding to SERT
T5 construct: rat striatum was the source for DAT, and cerebral cortex for SERT and NET; from tissue; host or cells: rat cerebral cortex
Experimental: as §1

T1 sequence (P23977 whole entry): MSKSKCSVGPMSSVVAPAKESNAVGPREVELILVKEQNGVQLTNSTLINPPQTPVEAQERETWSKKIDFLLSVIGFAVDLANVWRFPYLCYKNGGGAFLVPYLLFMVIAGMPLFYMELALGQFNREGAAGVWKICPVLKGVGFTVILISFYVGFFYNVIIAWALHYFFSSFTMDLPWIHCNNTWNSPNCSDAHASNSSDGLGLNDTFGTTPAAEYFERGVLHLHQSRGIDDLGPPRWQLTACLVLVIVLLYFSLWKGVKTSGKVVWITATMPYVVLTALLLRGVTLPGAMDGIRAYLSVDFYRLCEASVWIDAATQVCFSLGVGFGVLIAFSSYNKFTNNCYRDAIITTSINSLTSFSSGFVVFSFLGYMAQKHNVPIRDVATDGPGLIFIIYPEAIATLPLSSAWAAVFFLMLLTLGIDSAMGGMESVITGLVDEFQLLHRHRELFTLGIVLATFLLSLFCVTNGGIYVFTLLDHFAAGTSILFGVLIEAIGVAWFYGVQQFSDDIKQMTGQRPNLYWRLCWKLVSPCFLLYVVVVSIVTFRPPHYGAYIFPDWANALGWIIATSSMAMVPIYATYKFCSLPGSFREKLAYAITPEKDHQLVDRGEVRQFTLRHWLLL
T4 sequence (P31652 whole entry): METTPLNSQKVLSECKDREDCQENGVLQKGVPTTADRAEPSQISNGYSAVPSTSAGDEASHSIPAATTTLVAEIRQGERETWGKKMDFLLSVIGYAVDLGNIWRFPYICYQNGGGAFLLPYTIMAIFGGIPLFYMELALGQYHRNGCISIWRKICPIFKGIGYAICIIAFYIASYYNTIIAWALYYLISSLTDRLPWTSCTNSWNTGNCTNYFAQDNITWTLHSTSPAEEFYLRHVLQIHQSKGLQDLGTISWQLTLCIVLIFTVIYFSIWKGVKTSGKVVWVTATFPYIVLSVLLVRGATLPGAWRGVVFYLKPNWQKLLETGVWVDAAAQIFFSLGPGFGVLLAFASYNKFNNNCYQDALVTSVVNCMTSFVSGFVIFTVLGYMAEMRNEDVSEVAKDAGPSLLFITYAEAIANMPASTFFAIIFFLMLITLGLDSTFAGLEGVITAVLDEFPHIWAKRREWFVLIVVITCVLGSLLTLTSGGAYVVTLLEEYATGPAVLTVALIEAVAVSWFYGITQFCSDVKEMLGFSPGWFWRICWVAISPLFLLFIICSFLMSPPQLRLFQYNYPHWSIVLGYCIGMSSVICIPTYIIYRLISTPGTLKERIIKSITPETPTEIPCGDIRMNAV
T3 sequence (Q63380 1-617): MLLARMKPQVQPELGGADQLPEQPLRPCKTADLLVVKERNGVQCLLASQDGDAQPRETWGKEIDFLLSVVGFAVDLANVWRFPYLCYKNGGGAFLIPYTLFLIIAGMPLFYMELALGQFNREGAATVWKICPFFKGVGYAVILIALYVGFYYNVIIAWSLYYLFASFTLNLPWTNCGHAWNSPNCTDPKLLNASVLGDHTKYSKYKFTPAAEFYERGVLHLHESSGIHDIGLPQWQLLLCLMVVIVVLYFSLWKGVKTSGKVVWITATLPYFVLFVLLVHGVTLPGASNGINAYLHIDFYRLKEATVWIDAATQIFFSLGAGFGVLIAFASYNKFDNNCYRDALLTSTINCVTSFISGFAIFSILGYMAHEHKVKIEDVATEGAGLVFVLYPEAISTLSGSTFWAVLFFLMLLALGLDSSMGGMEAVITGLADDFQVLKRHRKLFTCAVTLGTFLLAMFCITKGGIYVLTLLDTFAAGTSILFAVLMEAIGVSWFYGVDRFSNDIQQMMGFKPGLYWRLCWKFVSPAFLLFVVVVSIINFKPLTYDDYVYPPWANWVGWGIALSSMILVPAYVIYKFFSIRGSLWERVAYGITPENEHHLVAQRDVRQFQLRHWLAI
T2 sequence (P23977 whole entry): as the sequence (P23977 whole entry) above
T5 sequence (P31652 whole entry): as the sequence (P31652 whole entry) above

SMILES	NET binding/DAT binding (rat NET)	Blockade of NET, in words (NET)	also measured
COc1ccc(CN[C@H]2C[C@H](C(c3ccccc3)c3ccccc3)OC[C@H]2O)cc1 (as salt: oxalate) [(+)-29g, (3S,4S,6R)-6-benzhydryl-4-(4-methoxy-benzylamino)-tetrahydro-pyran-3-ol]			melting point: 235 to 237 °C
O[C@@H]1CO[C@@H](C(c2ccccc2)c2ccccc2)C[C@@H]1NCc1ccccc1 (as salt: oxalate) [(+)-29h, (3S,4S,6R)-6-benzhydryl-4-benzylamino-tetrahydropyran-3-ol]			melting point: 259 to 260 °C
O[C@@H]1CO[C@H](C(c2ccccc2)c2ccccc2)C[C@H]1NCc1ccccc1 (as salt: oxalate) [(−)-29h, (3S,4R,6S)-6-benzhydryl-4-benzylamino-tetrahydropyran-3-ol]			melting point: 259 to 260 °C
Oc1ccc(CN[C@H]2CC[C@@H](C(c3ccccc3)c3ccccc3)OC2)cc1 (relative stereo) (as salt: oxalate) [Compound 16h, Cis-(6-benzhydryl-tetrahydropyran-3-yl)-(4-hydroxy-benzyl)-amine]			melting point: 136 to 138 °C
Fc1ccc(CN[C@H]2CCO[C@@H](C(c3ccccc3)c3ccccc3)C2)cc1 (relative stereo) [Compound 7a, cis-(2-benzhydryl-tetrahydropyran-4-yl)-(4-fluorobenzyl)-amine]	3.9		
N[C@H]1CC[C@@H](C(c2ccccc2)c2ccccc2)OC1 (relative stereo) [Compound 15, Cis-(6-benzhydryl-tetrahydropyran-3-yl)-amine]			Activity at the DAT, in words (rat DAT): little or no activity at the DAT
Fc1ccc(CN[C@H]2CC[C@@H](C(c3ccccc3)c3ccccc3)OC2)cc1 (relative stereo) [Compound 16b, Cis-(6-benzhydryl-tetrahydropyran-3-yl)-(4-fluoro-benzyl)-amine]	1.4		
O=[N+]([O-])c1ccc(CN[C@H]2CC[C@@H](C(c3ccccc3)c3ccccc3)OC2)cc1 (relative stereo) [Compound 16d, Cis-(6-benzhydryl-tetrahydropyran-3-yl)-(4-nitro-benzyl)-amine]			Potency in inhibiting binding versus uptake, in words (DAT): three fold higher potency in inhibiting binding than uptake
Clc1ccc(CN[C@H]2CC[C@@H](C(c3ccccc3)c3ccccc3)OC2)cc1Cl (relative stereo) [Compound 16i, Cis-(6-benzhydryl-tetrahydropyran-3-yl)-(3,4-dichloro-benzyl)-amine]	0.36		
Fc1ccc(CN[C@H]2CC[C@@H](C(c3ccccc3)c3ccccc3)OC2)cc1F (relative stereo) [Compound 16j, Cis-(6-benzhydryl-tetrahydropyran-3-yl)-(3,4-difluoro-benzyl)-amine]	1.9		
c1ccc(CN[C@H]2CC[C@@H](C(c3ccccc3)c3ccccc3)OC2)cc1 (relative stereo) [Compound 16k, Cis-(6-benzhydryl-tetrahydropyran-3-yl)-benzyl-amine]	0.90		
Ic1ccc(CN[C@H]2CC[C@@H](C(c3ccccc3)c3ccccc3)OC2)cc1 (relative stereo) [Compound 16m, Cis-(6-benzhydryl-tetrahydropyran-3-yl)-(4-iodo-benzyl)-amine]	0.73		
c1ccc(C(c2ccccc2)[C@@H]2CC[C@H](NCc3ccc4[nH]ccc4c3)CO2)cc1 (relative stereo) [Compound 16n, Cis-(6-benzhydryl-tetrahydropyran-3-yl)-(1H-iodo-5-ylmethyl)-amine]	0.09		
Oc1ccc(CN[C@H]2CO[C@@H](C(c3ccccc3)c3ccccc3)C[C@@H]2O)cc1 [(+)-32a, (2R,4S,5S)-2-benzhydryl-5-(4-hydroxy-benzylamino)-tetrahydro-pyran-4-ol]		selective blockers for NET	
Oc1ccc(CN[C@@H]2CC[C@H](C(c3ccccc3)c3ccccc3)OC2)cc1 [(+)-37a, cis-(3R,6R)-(6-benzhydryl-tetrahydropyran-3-yl)-(4-hydroxy-benzyl)-amine]		selective blockers for NET	
COc1ccc(CN[C@@H]2CO[C@H](C(c3ccccc3)c3ccccc3)C[C@H]2O)cc1 [(−)-29a, (2S,4R,5R)-2-benzhydryl-5-(4-methoxy-benzylamino)-tetrahydropyran-4-ol]		potent blockers	Blockade of SERT, in words (SERT): potent blockers
O[C@@H]1C[C@@H](C(c2ccccc2)c2ccccc2)OC[C@H]1NCc1ccc(F)cc1 [(−)-29b, (2S,4R,5R)-2-benzhydryl-5-(4-fluoro-benzylamino)-tetrahydro-pyran-4-ol]		selective blockers for NET	
O[C@@H]1C[C@@H](C(c2ccccc2)c2ccccc2)OC[C@H]1NCc1ccccc1 [(−)-29d, (2S,4R,5R)-2-benzhydryl-5-benzylamino-tetrahydro-pyran-4-ol]		selective blockers for NET	
COc1ccc(CN[C@@H]2CO[C@H](C(c3ccccc3)c3ccccc3)C[C@H]2O)c(OC)c1 [(−)-29e, (2S,4R,5R)-2-benzhydryl-5-(2,4-dimethoxy-benzylamino)-tetrahydropyran-4-ol]		potent blockers	Blockade of SERT, in words (SERT): potent blockers
COc1cc(CN[C@@H]2CO[C@H](C(c3ccccc3)c3ccccc3)C[C@H]2O)cc(OC)c1 [(−)-29f, (2S,4R,5R)-2-benzhydryl-5-(3,5-dimethoxy-benzylamino)-tetrahydropyran-4-ol]		potent blockers	Blockade of SERT, in words (SERT): potent blockers
Oc1ccc(CN[C@@H]2CO[C@H](C(c3ccccc3)c3ccccc3)C[C@H]2O)cc1 [(−)-32a, (2S,4R,5R)-2-benzhydryl-5-(4-hydroxy-benzylamino)-tetrahydropyran-4-ol]		selective blockers for NET	
O[C@@H]1C[C@@H](C(c2ccccc2)c2ccccc2)OC[C@H]1NCc1ccc2[nH]ccc2c1 [(−)-32b, (2S,4R,5R)-2-benzhydryl-5-[(1H-indol-5-ylmethyl)-amino]-tetrahydropyran-4-ol]		potent blockers	Blockade of SERT, in words (SERT): potent blockers
Oc1ccc(CN[C@H]2CC[C@@H](C(c3ccccc3)c3ccccc3)OC2)cc1 [(−)-37a, cis-(3S,6S)-(6-benzhydryl-tetrahydropyran-3-yl)-(4-hydroxy-benzyl)-amine]		potent blockers	Blockade of SERT, in words (SERT): potent blockers
c1ccc(CN[C@H]2CC[C@@H](C(c3ccccc3)c3ccccc3)NC2)cc1 [Compound 1a, reference compound]			IC50 (rat DAT): 114 nM; IC50 (rat SERT): 2130 ± 110 nM
c1ccc(C(c2ccccc2)C2CCC(NCc3c[nH]c4ccccc34)CO2)cc1 (stereo not drawn) [Compound 16f, Cis-(6-benzhydryl-tetrahydropyran-3-yl)-(3-indole-methyl)-amine]	2.3		
c1ccc(C(c2ccccc2)C2CCC(NCc3cc4ccccc4[nH]3)CO2)cc1 (stereo not drawn) [Compound 16g, Cis-(6-benzhydryl-tetrahydropyran-3-yl)-(2-indole-methyl)-amine]	1.8		Fold more active at DAT compared to 16f (rat DAT; DAT binding, 227 vs. 794 nM): 3.5 fold
